The values that follow come from the METLIN SMRT retention time set (Domingo-Almenara et al. 2019).

The nature of the data set: gradient 5% acetonitrile 3 min, to 50% in 2 min, to 85% in 15 min, held 3 min, 100 µL/min. To be noted: column: Zorbax Extend-C18 2.1 x 50 mm; eluents: water / acetonitrile, 0.1% formic acid. The essentials: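 Pure standards were run in mixtures of ~100 molecules by HPLC coupled to a quadrupole time-of-flight mass spectrometer. The column was a Zorbax Extend-C18 (2.1 × 50 mm, 1.8 μm) at 100 μL/min, with water and acetonitrile each containing 0.1% formic acid, in positive and negative ionization mode. Dead and dwell volumes were 40 μL and 900 μL. Retention time was taken from computationally picked adduct peaks, each manually inspected, with data collected over 3 months.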
As to `Cc1ccc(C)c(-c2nc(-c3ccc4c(c3)oc(=O)n4C(C)C)no2)c1`, the RP-LC retention time turned out to be 1190 s. Under `Cc1noc(C2(NC(=O)C3CCC3)CCCCC2)n1` stands 745 s; under `CC(C)c1noc(-c2cc(=O)n(CC(=O)Nc3ccc(Cl)cc3)c3ccccc23)n1`, 1060 s; under `COc1ccc(-c2nnc(-c3ccc(OC)c(S(=O)(=O)N4CCCCC4)c3)o2)cc1OC`, 922 s.

Compound `Cc1ccc(C)c(N2CCN(Cc3nc(-c4ccc(N5CCCCC5)nc4)no3)CC2)c1` yielded an RP-LC retention time of 1160 s. On to `CCc1cc(-c2csc(S(=O)(=O)N3CCc4ccccc4C3)c2)on1`, for which the RP-LC retention time stood at 1110 s. The same measure for `COc1ccc(NC(=O)Cn2c(C)cc(-c3nnc(-c4ccccc4)o3)c2C)cc1`: 927 s; for `Cc1cnc(C(=O)N2CCC(F)(F)C(COCC3CC3)C2)cn1` (centres undefined): 794 s. Under `Cc1cccc(NC(=O)N2CCC(CCN)CC2)c1` stands 586 s. Under `O=C([C@@H]1C[C@H](Oc2cccnc2)CN1C(=O)Cn1c(=O)oc2ccccc21)N1CCCC1` stands 601 s; under `COc1cccc(-n2cc(C(=O)OCc3ccccn3)c3ccccc3c2=O)c1`, 854 s. `CCOC(=O)c1c(C)oc2nc(C)nc(NCc3ccc(OC)cc3)c12` had an RP-LC retention time of 1080 s. The same measure for `O=C(CN1C(=O)C(C(=O)N2CCCC2)Sc2ccccc21)Nc1ccc(Cl)cc1` (centres undefined): 1070 s. The same measure for `Cc1ccc(Nc2ccc(NC(=O)c3ccccc3F)cc2)nn1`: 568 s.

As for `CCOC(=O)c1ccc(NC(=O)c2c(OCC)cc(=O)n3c2CCCC3)cc1`, the RP-LC retention time came out at 770 s.

With `CCN(CC)S(=O)(=O)c1ccc2c(c1)N(CC(=O)N(C)Cc1ccccc1)C(=O)C1CCCCN21` (centres undefined), the RP-LC retention time is 895 s.

`CCN1C(=O)c2ccccc2S(=O)(=O)c2ccc(C(=O)N3CCN(c4ccccn4)CC3)cc21` gave an RP-LC retention time of 615 s. Turning to `CCCc1noc(-c2ccc(-n3ncc(C(=O)NC(C)C)c3C)nc2)n1`, the RP-LC retention time turned out to be 970 s.

The compound `CCN1CCN(CC2CCN(S(=O)(=O)Cc3cccc(Cl)c3)CC2)CC1` showed an RP-LC retention time of 618 s. Under `Cc1nnc2ccc(S(=O)(=O)N(Cc3ccccc3)c3ccc(F)cc3)cn12` stands 870 s; under `Cc1cc(Nc2ccc(NC(=O)Cn3cnc4ccccc43)cc2)nc(N2CCCC2)n1`, 548 s; under `COc1ccc2nc(NC3=NCN(Cc4ccco4)CN3)nc(C)c2c1`, 640 s. Under `O=C1NCCCn2cc(S(=O)(=O)Nc3ccc(F)c(F)c3)cc21` stands 676 s; under `COc1ccccc1NC(=O)CSc1nc2c(-c3ccccc3)csc2c(=O)n1C`, 960 s; under `Cc1ccc(C)c(NC(=O)N2CCC(n3cnnc3C3CC3)C2)c1` (centres undefined), 634 s.

`CCOc1cc(=O)n2c(c1C(=O)Nc1ccc(Br)cc1F)CCCC2` displayed an RP-LC retention time of 790 s. The same measure for `CCc1ccc(NC(=O)CSc2nc(N3CCCCC3)nc3ccccc23)cc1`: 809 s; for `CCCNC(=O)C1CCN(c2ccc(SCC(=O)Nc3ccc(OC)c(OC)c3)nn2)CC1`: 595 s. `CCc1nnc2c(=O)n(CC(=O)NCc3cccc(F)c3)c3cccnc3n12`: the RP-LC retention time was determined as 710 s. The same measure for `O=C(NC1CCCCCC1)c1ccc2ncnc(N3CCCC3)c2c1`: 675 s; for `COc1ccc(-c2cn3c(CC(=O)N4CCCCC4)csc3n2)cc1OC`: 666 s; for `CCC(=O)N1CCC2(CC1)CC(CC(=O)N(C)C)CCO2` (centres undefined): 598 s. Under `Cc1ccc2c(Nc3ccc(F)cc3F)c(C(=O)N3CCCC3)cnc2n1` stands 596 s. `Cc1ccc(CNc2c(-c3ccc(F)c(F)c3)nc3ncccn23)cc1` gave an RP-LC retention time of 890 s. Turning to `CCn1ncc(Cl)c1C(=O)N1CCCC1c1ccccc1F` (centres undefined), the RP-LC retention time was found to be 922 s. `Nc1nc2ccc([N+](=O)[O-])cc2[nH]1` showed an RP-LC retention time of 610 s.

`O=C1CCCCC(Cc2ccccc2)(C(=O)Nc2ccc(F)cc2)N1` (centres undefined) returned an RP-LC retention time of 818 s. Under `COc1ccc(C(=O)Nc2ccc(N3CCN(C4CCCC4)C3=O)nc2)c(OC)c1` stands 829 s; under `COc1ccc(NC(=O)Cn2c(=O)n(-c3ccc(C)cc3)c3ncccc32)cc1OC`, 802 s; under `N#Cc1ccc(-c2nc(-c3nn(CCN4CCOCC4)c4ccccc34)no2)cc1`, 692 s.

`Cc1ccc(CNC(=O)CNC(=O)N2CCSc3nc(C)cc(C)c32)cc1` displayed an RP-LC retention time of 670 s.

Turning to `Cc1cc(F)ccc1NC(=O)COc1cc(C(F)(F)F)c2c(C)nn(C)c2n1`, the RP-LC retention time is 985 s. The compound `O=C(c1n[nH]c2c1CCCC2)N1CCN(c2ccc(=O)n(-c3ccc(Cl)cc3)n2)CC1` displayed an RP-LC retention time of 758 s. `O=C1C(c2cccs2)N(Cc2ccco2)C(=O)CN1c1ccccc1` (centres undefined) had an RP-LC retention time of 734 s. The compound `C=Cc1ccc(Cn2nc3c(S(=O)(=O)N4CCN(c5ccc(F)cc5)CC4)cccn3c2=O)cc1` returned an RP-LC retention time of 1010 s. The same measure for `CCOc1cccc(-c2noc(Cn3nc(-c4ccc(C)cc4)ccc3=O)n2)c1`: 1170 s. The same measure for `Cc1cccc(S(=O)(=O)N2Cc3ccccc3CC2C(=O)NCc2ccco2)c1` (centres undefined): 1000 s; for `CCn1cc(CCNC(=O)Cc2ccccc2C)c2cccnc21`: 721 s.

Consider `COc1ccc(-n2ncc3c(=O)n(Cc4nc(-c5ccccc5OC)no4)cnc32)cc1`, for which the RP-LC retention time turned out to be 902 s. The same measure for `COc1cc(-c2noc(C3CC(=O)N(c4ccc(C)cc4)C3)n2)cc(OC)c1OC` (centres undefined): 902 s; for `COc1ccc(CNC(=O)N2CC=C(c3cn(C(C)C)c4ncccc34)CC2)cc1`: 678 s; for `CC(C)c1ccc(NC(=O)C(=O)NCCCN2CCN(c3ccccc3)CC2)cc1`: 631 s. The same measure for `CC(=O)N1CCC(C(=O)Nc2ccsc2-c2nc(-c3ccccc3)no2)CC1`: 980 s.

As for `O=C(Nc1ccc(Br)cc1F)c1ccc(-n2ccnc2)nn1`, the RP-LC retention time amounted to 693 s. Take `Cc1cc(NC(=O)N2CCC(n3c(C)nc4cccnc43)CC2)ccc1Br`: the RP-LC retention time is 706 s. Under `COc1cccc(-n2ccnc(NC(=O)Nc3cccc(F)c3)c2=O)c1` stands 934 s; under `COc1cccc(-c2cc(CNC(=O)c3sc(-n4cccc4)nc3C)no2)c1`, 934 s; under `Cc1cc(NS(=O)(=O)c2cc3n(c2)CCN(C)C3=O)ccc1F`, 698 s.

On to `CSc1ccccc1NC(=O)C(=O)NCC1CCN(Cc2ccco2)CC1`, for which the RP-LC retention time was found to be 579 s. Take `O=C(NCc1ccc(F)cc1F)C1CCCN(c2cn[nH]c(=O)c2)C1` (centres undefined): the RP-LC retention time is 660 s. Under `O=C(c1ccc(Cl)cc1)N1CCc2cc(CNS(=O)(=O)Cc3ccccc3)ccc21` stands 981 s. The same measure for `O=C(CN1C(=O)CCCc2cc(S(=O)(=O)N3CCCCC3)ccc21)NCc1ccc(Cl)cc1`: 926 s; for `CCC1Oc2ccc(S(=O)(=O)N3CCC(C(=O)Nc4cc(C)cc(C)c4)CC3)cc2NC1=O` (centres undefined): 837 s; for `CCc1nc(-c2ccc3c(c2)CCN3C(=O)Cc2cccc(F)c2)no1`: 1030 s. Under `CNC(=O)c1cc(-c2cccc(F)c2)nc2ccccc12` stands 850 s; under `CC(C)n1c(N2CCCN(C(=O)COc3ccccc3)CC2)cc(=O)n(C(C)C)c1=O`, 843 s.

For `CCn1ncn2cc(S(=O)(=O)NCc3ccccc3)cc2c1=O`, the RP-LC retention time was found to be 800 s. In the case of `O=C(CCC(=O)N1CCCC1c1nc2ccccc2s1)N1CCN(c2ccccc2)CC1` (centres undefined), the RP-LC retention time stood at 812 s. As to `COC[C@@H]1CN(S(=O)(=O)c2cccc(F)c2)C[C@H]1c1ccncc1`, the RP-LC retention time was determined as 649 s. Under `O=C(NCCC1=CCCCC1)c1ccc(CN2CCN(C3CCCC3)C(=O)C2=O)cc1` stands 836 s; under `O=C(CSC1CCCC1)N1CCCC(c2nnc(-c3ccccc3F)s2)C1` (centres undefined), 994 s; under `Cc1ccc(C)c(C(=O)N2CCCC(COc3ccc(C(=O)NC4CC4)cc3)C2)c1` (centres undefined), 849 s. Under `COc1cc(C(=O)N(Cc2ccc(N(C)C)cc2)C2CCS(=O)(=O)C2)cc(OC)c1OC` (centres undefined) stands 634 s; under `CCc1nc(OCC(=O)NCc2ccc(OC)cc2)c2ccccc2n1`, 746 s. Under `O=c1c2scc(-c3cccc(F)c3)c2ncn1Cc1cc(=O)n2ccccc2n1` stands 809 s; under `O=C(Cc1cccs1)N1CCCn2cc(-c3ccccc3F)nc21`, 848 s. The compound `CCC(=O)N1CCc2sc(C(=O)NC3CCN(Cc4ccccc4)CC3)cc2C1` showed an RP-LC retention time of 604 s.

Turning to `COc1ccccc1-c1nnc(-c2cc(S(=O)(=O)N3CCOCC3)ccc2F)o1`, the RP-LC retention time is 828 s. Under `O=C1CCCc2nc(Nc3nc(-c4ccccc4)c4cc(Cl)ccc4n3)ncc21` stands 922 s.
